Experimental data taken from patent US9113629B2, “4-amino-6-(4-substituted-phenyl)-picolinates and 6-amino-2-(4-substituted-phenyl)-pyrimidine-4-carboxylates and their use as herbicides” (DOW AGROSCIENCES LLC, priority 2013, dated 2015).
Like-named read-outs stand apart in the source and are kept apart here.

Columns and labels:
[1] = test system: Key Broadleaf Weed and Crop Species; assay: Post-emergent Test II herbicidal activity (Table 5); type: in vivo; details: post-emergence, 336 h, 14 days after application; for pest or weed control at 70 g/ha: application rate 70 g ai/ha; for pest or weed control at 140 g/ha: application rate 140 g ai/ha
In short: (§1)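 Spray rates: a highest rate plus ½×, ¼×, ⅛×, 1/16×, all delivered at 187 L/ha to plants at the first–second true leaf stage. Readout is a visual percent injury score at 14 d, where 100 means complete kill.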

[2] = test system: Key Grass and Sedge Weeds as well as Grass Crops; assay: Post-emergent Test II herbicidal activity (Table 6); type: in vivo; details: post-emergence, 336 h; for pest or weed control at 70 g/ha: 70 g ai/ha; for pest or weed control at 140 g/ha: 140 g ai/ha
In short: as §1

[3] = ABUTH: velvetleaf (Abutilon theophrasti), read-out: Visual Growth Reduction (%) 14 Days After Application, ABUTH
[4] = AMARE: redroot pigweed (Amaranthus retroflexus), read-out: Visual Growth Reduction (%) 14 Days After Application, AMARE
[5] = BRSNN: oilseed-rape, canola (Brassica napus), read-out: Visual Growth Reduction (%) 14 Days After Application, BRSNN
[6] = CHEAL: lambsquarters (Chenopodium album), read-out: Visual Growth Reduction (%) 14 Days After Application, CHEAL
[7] = EPHHL: wild poinsettia (Euphorbia heterophylla), read-out: Visual Growth Reduction (%) 14 Days After Application, EPHHL
[8] = HELAN: sunflower (Helianthus annuus), read-out: Visual Growth Reduction (%) 14 Days After Application, HELAN
[9] = VIOTR: wild pansy (Viola tricolor), read-out: Visual Growth Reduction (%) 14 Days After Application, VIOTR
[10] = CYPES: yellow nutsedge (Cyperus esculentus), read-out: Visual Growth Reduction (%) 14 Days After Application, CYPES
[11] = DIGSA: crabgrass (Digitaria sanguinalis), read-out: Visual Growth Reduction (%) 14 Days After Application, DIGSA
[12] = ECHCG: barnyardgrass (Echinochloa crus-galli), read-out: Visual Growth Reduction (%) 14 Days After Application, ECHCG
[13] = ORYSA: rice (Oryza sativa), crop, read-out: Visual Growth Reduction (%) 14 Days After Application, ORYSA
[14] = SETFA: giant foxtail (Setaria faberi), read-out: Visual Growth Reduction (%) 14 Days After Application, SETFA
[15] = SORVU: grain sorghum (Sorghum vulgare), read-out: Visual Growth Reduction (%) 14 Days After Application, SORVU
[16] = TRZSS (wheat, Triticum aestivum), crop, read-out: Visual Growth Reduction (%) 14 Days After Application, TRZSS
[17] = ZEAMX: maize, corn (Zea mays), crop, read-out: Visual Growth Reduction (%) 14 Days After Application, ZEAMX

Structure (SMILES) | melting point [°C] | pest or weed control at 70 g/ha [1, 3] [%] | pest or weed control at 140 g/ha [1, 3] [%] | pest or weed control at 70 g/ha [1, 4] [%] | pest or weed control at 140 g/ha [1, 4] [%] | pest or weed control at 70 g/ha [1, 5] [%] | pest or weed control at 140 g/ha [1, 5] [%] | pest or weed control at 70 g/ha [1, 6] [%] | pest or weed control at 140 g/ha [1, 6] [%] | pest or weed control at 70 g/ha [1, 7] [%] | pest or weed control at 140 g/ha [1, 7] [%] | pest or weed control at 70 g/ha [1, 8] [%] | pest or weed control at 140 g/ha [1, 8] [%] | pest or weed control at 70 g/ha [1, 9] [%] | pest or weed control at 140 g/ha [1, 9] [%] | pest or weed control at 70 g/ha [2, 10] [%] | pest or weed control at 140 g/ha [2, 10] [%] | pest or weed control at 70 g/ha [2, 11] [%] | pest or weed control at 140 g/ha [2, 11] [%] | pest or weed control at 70 g/ha [2, 12] [%] | other results
COC(=O)c1nc(-c2ccc(Br)cc2F)c(F)c(N)c1Cl [Compound 52] | 146 to 148 | 95 to 100 | 95 to 100 | 95 to 100 | 95 to 100 | 95 to 100 | 95 to 100 | 95 to 100 | 95 to 100 | 95 to 100 | 95 to 100 | 95 to 100 | 95 to 100 | 95 to 100 | 95 to 100 | 95 to 100 | 95 to 100 | 85 to 94 | 85 to 94 | 60 to 74 | pest or weed control at 140 g/ha [2, 12]: 75 to 84%; pest or weed control at 70 g/ha [2, 13]: 0 to 29%; pest or weed control at 140 g/ha [2, 13]: 0 to 29%; pest or weed control at 140 g/ha [2, 14]: 85 to 94%; pest or weed control at 70 g/ha [2, 15]: 95 to 100%; pest or weed control at 140 g/ha [2, 15]: 95 to 100%; pest or weed control at 70 g/ha [2, 16]: 30 to 44%; pest or weed control at 140 g/ha [2, 16]: 30 to 44%; pest or weed control at 70 g/ha [2, 17]: 95 to 100%; pest or weed control at 140 g/ha [2, 17]: 95 to 100%
COC(=O)c1nc(-c2ccc(I)cc2F)c(F)c(N)c1Cl [Compound 9] | 136 to 138 | 0 to 29 | 0 to 29 | 0 to 29 | 0 to 29 | 0 to 29 | 0 to 29 | 0 to 29 | 0 to 29 | 0 to 29 | 0 to 29 | 0 to 29 | 0 to 29 | 0 to 29 | 0 to 29 | 0 to 29 | 0 to 29 | 0 to 29 | 0 to 29 | 0 to 29 | pest or weed control at 140 g/ha [2, 12]: 0 to 29%; pest or weed control at 70 g/ha [2, 13]: 0 to 29%; pest or weed control at 140 g/ha [2, 13]: 0 to 29%; pest or weed control at 70 g/ha [2, 14]: 0 to 29%; pest or weed control at 140 g/ha [2, 14]: 0 to 29%; pest or weed control at 70 g/ha [2, 15]: 0 to 29%; pest or weed control at 140 g/ha [2, 15]: 0 to 29%; pest or weed control at 70 g/ha [2, 16]: 0 to 29%; pest or weed control at 140 g/ha [2, 16]: 0 to 29%; pest or weed control at 70 g/ha [2, 17]: 0 to 29%; pest or weed control at 140 g/ha [2, 17]: 0 to 29%
C#Cc1ccc(-c2nc(C(=O)O)c(Cl)c(N)c2F)c(F)c1F [Compound 50] | 174 to 176 | 60 to 74 | 60 to 74 | 0 to 29 | 0 to 29 | 0 to 29 | 0 to 29 | 0 to 29 | 0 to 29 | 45 to 59 | 95 to 100 | 45 to 59 | 60 to 74 | 0 to 29 | 0 to 29 | 0 to 29 | 0 to 29 | 0 to 29 | 45 to 59 | 45 to 59 | pest or weed control at 140 g/ha [2, 12]: 75 to 84%; pest or weed control at 70 g/ha [2, 13]: 0 to 29%; pest or weed control at 140 g/ha [2, 13]: 0 to 29%; pest or weed control at 70 g/ha [2, 14]: 30 to 44%; pest or weed control at 140 g/ha [2, 14]: 45 to 59%; pest or weed control at 70 g/ha [2, 15]: 0 to 29%; pest or weed control at 140 g/ha [2, 15]: 0 to 29%; pest or weed control at 70 g/ha [2, 16]: 0 to 29%; pest or weed control at 140 g/ha [2, 16]: 0 to 29%; pest or weed control at 70 g/ha [2, 17]: 95 to 100%; pest or weed control at 140 g/ha [2, 17]: 95 to 100%
COC(=O)c1nc(-c2ccc(C(F)(F)F)c(F)c2F)c(F)c(N)c1Cl [Compound 149] | 131 to 132 | 95 to 100 | 95 to 100 | 95 to 100 | 95 to 100 | 85 to 94 | 95 to 100 | 95 to 100 | 95 to 100 | 95 to 100 | 95 to 100 | 95 to 100 | 95 to 100 | 85 to 94 | 85 to 94 | 95 to 100 | 95 to 100 | 30 to 44 | 30 to 44 | 95 to 100 | pest or weed control at 140 g/ha [2, 12]: 95 to 100%; pest or weed control at 70 g/ha [2, 13]: 0 to 29%; pest or weed control at 140 g/ha [2, 13]: 0 to 29%; pest or weed control at 70 g/ha [2, 14]: 30 to 44%; pest or weed control at 140 g/ha [2, 14]: 30 to 44%; pest or weed control at 70 g/ha [2, 15]: 95 to 100%; pest or weed control at 140 g/ha [2, 15]: 95 to 100%; pest or weed control at 70 g/ha [2, 16]: 30 to 44%; pest or weed control at 140 g/ha [2, 16]: 45 to 59%; pest or weed control at 70 g/ha [2, 17]: 75 to 84%; pest or weed control at 140 g/ha [2, 17]: 85 to 94%
